Data set [1] concerns HSC2, HSC3, HSC4, and OSC19 cells. Description: Sensitivity of squamous cell carcinoma cell lines to cisplatin, cell viability by Celltiter-Glo after 72 hours. It counts as cell-based. The following applies: OSC19 compared with HSC2, HSC3, and HSC4, cisplatin 1, 2.5, 5, 7.5 μM, FIG. 3. How it is done:
Next, GSH levels in the cells were measured using GSH-Glo™ Glutathione Assay (Promega) to examine the correlation with the CD44v expression. Furthermore, in order to examine the sensitivity of the cell lines in which CD44 expression is suppressed to cisplatin, each cell line was seeded onto a 96-well plate at 2000 cells/well and cisplatin was added the following day at concentrations of 1, 2.5, 5, and 7.5 μM. After 72 hours, the cell viability was measured using Celltiter-Glo (Promega).

The subject of data set [2] is OSC19 cells. As to the kind of experiment: Level of reactive oxygen species by H2DCFDA staining, fluorescence microscopy. The data set is classed as cell-based. The following applies: 10 μM, 24 hours, FIG. 6. How it is done:
Next, change in level of reactive oxygen species by the compounds having a high selectivity to OSC19 was examined. OSC19 cells were seeded onto 24-well glass-bottomed plate at 1×10^5 cells/well, and each compound was added at 10 μM on the following day. Subsequently, the cells were incubated for 24 hours, stained with 2′,7′-dichloro-dihydro-fluorescein-diacetate (H2DCFDA), which is a redox fluorescence indicator, and observed under a fluorescence microscope. In addition, their ability of inducing the reactive oxygen species was evaluated according to the fluorescence intensity. FIG. 6 is fluorescence micrographs of OSC19 cells treated with the compounds given in Table 1, showing the increase in ROS in OSC19 cells scored on 4 rating scales. The “4 rating scales” are as follows.

Data set [3] concerns OSC19 and HSC4 cells. As to the kind of experiment: Cell viability by Celltiter-Glo after 72 hours with pimozide or sulfasalazine. The data set is classed as cell-based. The following applies: FIGS. 7 and 8; for sensitivity of OSC19 cells versus HSC4 cells (cell viability): pimozide 0.3-100 μM, sulfasalazine 10-1000 μM. How it is done:
Cell viability was examined for OSC19 and HSC4 cells incubated in a medium supplemented with US077 (pimozide). […] OSC19 and HSC4 cells were seeded in 96-well plates at 3000 cells/well and 2000 cells/well, respectively. On the following day, 0 μM (no addition), 0.3 μM, 1 μM, 3 μM, 10 μM, 30 μM, or 100 μM of pimozide or 0 μM (no addition), 10 μM, 30 μM, 100 μM, 300 μM, or 1000 μM of sulfasalazine were added. Then, the cells were incubated for 72 hours and cell viability was measured using Celltiter-Glo (Promega).

In data set [4] the test system is OSC19 cells. As to the kind of experiment: Subcutaneous OSC19 transplant in nude mice, tumor volume and tumor mass. Conditions: 1 mg/kg intraperitoneally once daily from day 5 to day 35 versus saline; FIGS. 9 and 10. The data set is classed as in vivo. How it is done:
Next, 1×10^6 OSC19 cells were subcutaneously transplanted into nude mice. After 5 days of transplantation, 1 mg/kg of pimozide or saline was intraperitoneally administered once daily to day 35. Short and long axes of each tumor were measured once every 3-4 days and a volume of the tumor was calculated using the following equation. Tumor volume=(long axis×(short axis)^2)/2 Specific tumor volume=tumor volume on the day measured/tumor volume at the beginning of administration Statistic analysis of the tumor volume was performed using Two-way ANOVA. Each tumor was removed after the treatment experiments and the mass of the tumor was measured. Statistic analysis of the tumor mass was performed using a t-test.

For data set [5], the system named is OSC19 and HSC4 cells. As to the kind of experiment: Intracellular reactive oxygen species by H2DCFDA staining with pimozide or sulfasalazine. It counts as cell-based. The following applies: 24 hours, FIG. 11; for inductive effect on intracellular accumulation of reactive oxygen species, OSC19 versus HSC4: pimozide 1, 3, 10 μM, sulfasalazine 300 μM. How it is done:
OSC19 and HSC4 cells were seeded onto 24-well glass-bottomed plate at 1×10^5 cells/well. On the following day, 0 μM (no addition), 1 μM, 3 μM, or 10 μM of pimozide or 300 μM of sulfasalazine was added. Subsequently, the cells were incubated for 24 hours, stained with H2DCFDA to visualize intracellular reactive oxygen species, and observed under a fluorescence microscope.

Data set [6] deals with OSC19 and HSC4 cells. Description: Cell viability by Celltiter-Glo after 72-hour incubation with sertindole. The following applies: sertindole 0.19-45.00 μM, FIG. 12. It counts as cell-based. How it is done:
OSC19 and HSC4 cells were seeded in 96-well plates at 3000 cells/well and 2000 cells/well, respectively, and started to be incubated. Two days after the beginning of the incubation, 0 μM (no addition), 0.19 μM, 0.56 μM, 1.67 μM, 5.00 μM, 15.00 μM, or 45.00 μM of sertindole was added. After 72-hour incubation, the number of the survived cells was measured using Celltiter-Glo (registered trademark) (Luminescent Cell Viability Assay; Promega). A ratio of the number of the survived cells to the number of the cells on the first day of incubation was calculated as a cell viability value.

The subject of data set [7] is OSC19 cells. Description: Ratio of H2DCFDA-stained cells to Hoechst33342-stained cells with sertindole or sulfasalazine. It counts as cell-based. The following applies: 10 μM sertindole versus 300 μM sulfasalazine, 24 hours; FIG. 13. How it is done:
OSC19 cells were seeded onto 24-well glass-bottomed plate at 1×10^5 cells/well and started to be incubated. Two days after the beginning of the incubation, 0.1 μM, 1 μM, or 10 μM of sertindole or 300 μM of sulfasalazine was added. DMSO was added to the control. The cells were then incubated for 24 hours, and 2′,7′-dichloro-dihydro-fluorescein-diacetate (H2DCFDA), which is a redox fluorescence indicator capable of emitting fluorescence when oxidized by reactive oxygen species in cells and Hoechst33342 that stains a cell nucleus were added. A ratio of the number of cells stained with H2DCFDA to the number of cells stained with Hoechst33342 was calculated.

Another data set relates to OSC19. As to the kind of experiment: Combined use of pimozide and sulfasalazine, cell viability by CellTiter-Glo after 72 hours. It counts as cell-based. Conditions: 150 μM of sulfasalazine alone, OSC19, 72 hours. How it is done:
Oral squamous cell carcinoma cell line, OSC19, was seeded onto 96-well plates at 3000 cells/well. On the following day, a combination of 0 μM (no addition; only DMSO), 1 μM, 2 μM, or 3 μM of pimozide, and 0 μM (no addition; only DMSO), 10 μM, 50 μM, 100 μM, 150 μM, or 200 μM of sulfasalazine was added. Subsequently, cells were incubated for 72 hours, and cell viability was measured using a CellTiter-Glo Luminescent Cell Viability Assay kit (Promega). Effects obtained using pimozide and sulfasalazine at different concentrations are shown in a graph in FIG. 14.
On the technique in general: In ATP-based viability assays light output follows the ATP content of the culture.

This note sets out measurements from US9814707B2, “Cancer stem cell proliferation inhibitor and intracellular active oxygen accumulation inducer” (Keio University, priority 2014, dated 2017).

Consider `N.N.[Cl][Pt][Cl]` [cisplatin], for which, in data set [1], the “sensitivity to cisplatin (cell viability)” value is “significantly lower in sensitivity to cisplatin”.

In the case of `O=c1[nH]c2ccccc2n1C1CCN(CCCC(c2ccc(F)cc2)c2ccc(F)cc2)CC1` [pimozide, Pimozide], the “increase in ROS in OSC19 cells scored on 4 rating scales” value with OSC19 cells [2] is on record as “significantly great increase in ROS level”. In the data set with OSC19 and HSC4 cells [3], the “inhibitory effect on cell proliferation, concentration compared with sulfasalazine” value is listed as “inhibitory effect on cell proliferation at a lower concentration than sulfasalazine” and the “sensitivity of OSC19 cells versus HSC4 cells (cell viability)” value was “higher sensitivity to pimozide than the HSC4 cells”. In the data set on OSC19 cells [4], the “tumor volume and tumor mass on day 35 (proliferation of OSC19 cells in mice)” value was “inhibition of proliferation of the OSC19 cells”. For the same compound, the “inductive effect on intracellular accumulation of reactive oxygen species compared with sulfasalazine” value with OSC19 and HSC4 cells [5] (pimozide 1, 3, 10 μM versus sulfasalazine 300 μM) was “significantly greater inductive effect on intracellular accumulation of reactive oxygen species at a significantly lower concentration as compared with sulfasalazine”. In the data set with OSC19 and HSC4 cells [5], the “inductive effect on intracellular accumulation of reactive oxygen species, OSC19 versus HSC4” value was “inductive effect on intracellular accumulation of reactive oxygen species selectively in OSC19 cells”.

On to `O=C1NCCN1CCN1CCC(c2cn(-c3ccc(F)cc3)c3ccc(Cl)cc23)CC1` [sertindole, Sertindole], for which the “inhibition of cell proliferation, OSC19 versus HSC4 (cell viability)” value in the data set with OSC19 and HSC4 cells [6] is “cell proliferation was inhibited by the addition of a lower concentration of sertindole for OSC19 than for HSC4”. In addition, the “intracellular ROS level (H2DCFDA-stained / Hoechst33342-stained cells) compared with sulfasalazine” value in the data set on OSC19 cells [7] is on record as “intracellular ROS level was higher as compared with a case where sulfasalazine was added at 30 times higher concentration”.

Take Sulfasalazine: in the data set on OSC19 and HSC4 cells [3], the “sensitivity of OSC19 cells versus HSC4 cells (cell viability)” value is given as “higher sensitivity to sulfasalazine than the HSC4 cells”. Also, the “inductive effect on intracellular accumulation of reactive oxygen species, OSC19 versus HSC4” value in the data set with OSC19 and HSC4 cells [5] was “selectively in OSC19 cells as in the case of sulfasalazine”. Moreover, the mortality of cells entry in the data set with OSC19 is “about 30%”.
